US12187773B2, “Modified GIP peptide analogues” (Antag Therapeutics ApS, priority 2018, dated 2025)
*1 amine or outer side, *2 acyl side, *3 side chain or, on linkers, in order; H or OH if unused. Where a SMILES comes first, the peptide text is derived from it. Side-chain parts run from the residue outwards. [ ]: non-standard residue; d: D form. The star is where a group is joined. C18 diacid = O=C(O)CCCCCCCCCCCCCCCCC(=O)*; C16 diacid = O=C(O)CCCCCCCCCCCCCCC(=O)*; γGlu = O=C(O)[C@H](CCC(=O)[*:2])N[*:1]; pGlu = O=C1CC[C@@H](C(=O)O)N1; AEEA = NCCOCCOCC(=O)O

How the values were obtained:
Type in all cases: cell-based
human GIP receptor [1] = target: T1, human GIP receptor (Homo sapiens, UniProt P48546); assay: cAMP agonism (CisBio cAMP Dynamic 2 HTRF assay); settings: HEK293, read-out: cAMP agonism, % Efficacy, Table 1C, HEK-293 cells
T1 sequence (P48546 22-466): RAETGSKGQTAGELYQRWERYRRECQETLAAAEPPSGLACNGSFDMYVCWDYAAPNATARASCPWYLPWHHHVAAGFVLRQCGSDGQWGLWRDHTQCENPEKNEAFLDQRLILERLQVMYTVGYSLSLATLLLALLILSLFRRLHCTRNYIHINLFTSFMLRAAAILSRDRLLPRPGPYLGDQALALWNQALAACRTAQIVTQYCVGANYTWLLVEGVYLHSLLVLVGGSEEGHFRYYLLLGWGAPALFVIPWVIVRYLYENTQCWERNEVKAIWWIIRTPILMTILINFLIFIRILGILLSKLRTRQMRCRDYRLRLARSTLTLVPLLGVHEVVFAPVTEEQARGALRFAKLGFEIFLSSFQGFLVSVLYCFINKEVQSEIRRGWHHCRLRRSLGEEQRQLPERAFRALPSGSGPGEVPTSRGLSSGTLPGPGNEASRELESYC
Experimental: To test for agonistic properties at the GIP receptor, compounds were diluted and added to cells as described above and incubated for 30 min at 37° C. The resulting increase in intracellular cAMP was determined using the CisBio cAMP Dynamic 2 HTRF Assay Kit as described above.

human GIP receptor [2] = target: T1, human GIP receptor; assay: cAMP accumulation, antagonism (DiscoveRx HitHunter cAMP XS assay); parameters: host or cells: COS-7 (transient, calcium phosphate; pCMV-Script vector); settings: Table 1B, DiscoveRx; for cAMP antagonism, % inhib: COS-7 cells, % inhibition of Emax; for IC50: cAMP antagonism, nM (IC50), transiently transfected COS-7 cells
Experimental: Transient transfected COS-7 cells expressing the human GIP receptor were seeded in white 96-well plates with a density of 3.5*10^4/well. The day after, the cells were washed twice with Hepes buffered saline (HBS) buffer and incubated with HBS and 1 mM 3-isobutyl-1-methylxanthine (IBMX) for 30 min at 37° C. To test for agonistic properties, ligands were added and incubated for 30 min at 37° C. In order to test for antagonistic properties, the cells were preincubated with the antagonists for 10 min prior to the addition of the agonist and subsequent incubated for 20 additional min. The HitHunter™ cAMP XS assay (DiscoveRx) was carried out according to the manufacturer's instructions.
In order to develop a GIP receptor antagonist with improved antagonistic properties, individual amino acid substitutions were conducted on GIP(3-30)NH2 and in particular at positions: 16, 18, 30 or 3, 16, 18, 30. The obtained peptides were lipidated at position 18 directly or via a linker. Both the agonistic and antagonistic profiles of the compounds were tested in cAMP accumulation experiments done in transiently transfected COS-7 cells expressing the human GIP receptor. To investigate if these mutated analogues still retained their antagonistic properties, their ability to inhibit a GIP-mediated cAMP response corresponding to 50-80% of maximum activation was examined.

human GIP receptor [3] = target: T1, human GIP receptor; assay: cAMP antagonism (CisBio cAMP Dynamic 2 HTRF assay); parameters: pCMV-Script vector; settings: Table 1C, CisBio, HEK-293 cells; for IC50: cAMP antagonism, nM (IC50), agonist GIP1-42 at EC50
Summary of the method: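 Four-parameter fits of cAMP dose-response gave pIC50. cAMP fall was quantified by HTRF competition, ratio 665/620 nm after 60 min at room temperature, against a cAMP standard curve.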

human GIP receptor [4] = target: T1, human GIP receptor; assay: cAMP accumulation, agonism (DiscoveRx HitHunter cAMP XS assay); parameters: host or cells: COS-7 (transient, calcium phosphate; pCMV-Script vector); settings: Table 1B; DiscoveRx; COS-7 cells
Summary of the method: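 cAMP accumulation measured by HitHunter cAMP XS in COS-7 cells transiently expressing human GIP receptor, after 30 min in HBS with 1 mM IBMX at 37 °C. Antagonists preincubated 10 min before GIP giving 50-80% of maximum, then 20 min more; agonist mode used 30 min ligand exposure.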

SMILES	Emax (human GIP receptor [1])	cAMP antagonism, % inhib (human GIP receptor [2])	cAMP antagonism, % inhib (human GIP receptor [3])	IC50 (human GIP receptor [3])	cAMP agonism, Emax (human GIP receptor [4])	IC50 (human GIP receptor [2])
CC[C@H](C)[C@H](NC(=O)[C@H](CO)NC(=O)[C@H](Cc1ccc(O)cc1)NC(=O)[C@H](CC(=O)O)NC(=O)[C@H](CO)NC(=O)[C@@H](NC(=O)[C@H](Cc1ccccc1)NC(=O)[C@@H](NC(=O)CNC(=O)[C@@H](N)CCC(=O)O)[C@@H](C)O)[C@@H](C)CC)C(=O)N[C@@H](C)C(=O)N[C@@H](CCSC)C(=O)N[C@@H](CC(=O)O)C(=O)N[C@@H](CCCNC(=N)N)C(=O)N[C@H](C(=O)N[C@@H](CCCCNC(=O)COCCOCCNC(=O)COCCOCCNC(=O)COCCOCCNC(=O)CC[C@H](NC(=O)CCCCCCCCCCCCCCC(=O)O)C(=O)O)C(=O)N[C@@H](CCC(N)=O)C(=O)N[C@@H](CCC(N)=O)C(=O)N[C@@H](CC(=O)O)C(=O)N[C@@H](Cc1ccccc1)C(=O)N[C@H](C(=O)N[C@@H](CC(N)=O)C(=O)N[C@@H](Cc1c[nH]c2ccccc12)C(=O)N[C@@H](CC(C)C)C(=O)N[C@@H](CC(C)C)C(=O)N[C@@H](C)C(=O)N[C@@H](CCC(N)=O)C(=O)N[C@@H](CCCNC(=N)N)C(N)=O)C(C)C)[C@@H](C)CC [AT375] (H-EGTFISDYSIAMDRIK([AEEA-AEEA-AEEA-γGlu-C16 diacid])QQDFVNWLLAQR-NH2; N-terminus assumed)	6%	100%	83%	23.3 nM	No Agonism	–
CC[C@H](C)[C@H](NC(=O)[C@H](CO)NC(=O)[C@H](Cc1ccc(O)cc1)NC(=O)[C@H](CC(=O)O)NC(=O)[C@H](CO)NC(=O)[C@@H](NC(=O)[C@H](Cc1ccccc1)NC(=O)[C@@H](NC(=O)CNC(=O)[C@@H](N)CCC(=O)O)[C@@H](C)O)[C@@H](C)CC)C(=O)N[C@@H](C)C(=O)N[C@@H](CCSC)C(=O)N[C@@H](CC(=O)O)C(=O)N[C@@H](CCCNC(=N)N)C(=O)N[C@H](C(=O)N[C@@H](CCCCNC(=O)COCCOCCNC(=O)CC[C@H](NC(=O)CCCCCCCCCCCCCCCCC(=O)O)C(=O)O)C(=O)N[C@@H](CCC(N)=O)C(=O)N[C@@H](CCC(N)=O)C(=O)N[C@@H](CC(=O)O)C(=O)N[C@@H](Cc1ccccc1)C(=O)N[C@H](C(=O)N[C@@H](CC(N)=O)C(=O)N[C@@H](Cc1c[nH]c2ccccc12)C(=O)N[C@@H](CC(C)C)C(=O)N[C@@H](CC(C)C)C(=O)N[C@@H](C)C(=O)N[C@@H](CCC(N)=O)C(=O)N[C@@H](CCCNC(=N)N)C(N)=O)C(C)C)[C@@H](C)CC [AT376] (HELM PEPTIDE1{E.G.T.F.I.S.D.Y.S.I.A.M.D.R.I.K.Q.Q.D.F.V.N.W.L.L.A.Q.R.[am]}|PEPTIDE2{[O=C(O)CCCCCCCCCCCCCCCCC(=O)[*:2]].[gGlu].[O=C(COCCOCCN[*:1])[*:2]]}$PEPTIDE1,PEPTIDE2,16:R3-3:R2$$$V2.0; N-terminus assumed)	0%	90%	87%	6.81 nM	No Agonism	19 nM
CC[C@H](C)[C@H](NC(=O)[C@H](CO)NC(=O)[C@H](Cc1ccc(O)cc1)NC(=O)[C@H](CC(=O)O)NC(=O)[C@H](CO)NC(=O)[C@@H](NC(=O)[C@H](Cc1ccccc1)NC(=O)[C@@H](NC(=O)CNC(=O)[C@@H](N)CCC(=O)O)[C@@H](C)O)[C@@H](C)CC)C(=O)N[C@@H](C)C(=O)N[C@@H](CCSC)C(=O)N[C@@H](CC(=O)O)C(=O)N[C@@H](CCCNC(=N)N)C(=O)N[C@H](C(=O)N[C@@H](CCCCNC(=O)COCCOCCNC(=O)COCCOCCNC(=O)CC[C@H](NC(=O)CCCCCCCCCCCCCCCCC(=O)O)C(=O)O)C(=O)N[C@@H](CCC(N)=O)C(=O)N[C@@H](CCC(N)=O)C(=O)N[C@@H](CC(=O)O)C(=O)N[C@@H](Cc1ccccc1)C(=O)N[C@H](C(=O)N[C@@H](CC(N)=O)C(=O)N[C@@H](Cc1c[nH]c2ccccc12)C(=O)N[C@@H](CC(C)C)C(=O)N[C@@H](CC(C)C)C(=O)N[C@@H](C)C(=O)N[C@@H](CCC(N)=O)C(=O)N[C@@H](CCCNC(=N)N)C(N)=O)C(C)C)[C@@H](C)CC [AT377] (H-EGTFISDYSIAMDRIK([AEEA-AEEA-γGlu-C18 diacid])QQDFVNWLLAQR-NH2; N-terminus assumed)	0%	100%	90%	–	No Agonism	19 nM
CC[C@H](C)[C@H](NC(=O)[C@H](CO)NC(=O)[C@H](Cc1ccc(O)cc1)NC(=O)[C@H](CC(=O)O)NC(=O)[C@H](CO)NC(=O)[C@@H](NC(=O)[C@H](Cc1ccccc1)NC(=O)[C@@H](NC(=O)CNC(=O)[C@@H](N)CCC(=O)O)[C@@H](C)O)[C@@H](C)CC)C(=O)N[C@@H](C)C(=O)N[C@@H](CCSC)C(=O)N[C@@H](CC(=O)O)C(=O)N[C@@H](CCCNC(=N)N)C(=O)N[C@H](C(=O)N[C@@H](CCCCNC(=O)COCCOCCNC(=O)COCCOCCNC(=O)COCCOCCNC(=O)CC[C@H](NC(=O)CCCCCCCCCCCCCCCCC(=O)O)C(=O)O)C(=O)N[C@@H](CCC(N)=O)C(=O)N[C@@H](CCC(N)=O)C(=O)N[C@@H](CC(=O)O)C(=O)N[C@@H](Cc1ccccc1)C(=O)N[C@H](C(=O)N[C@@H](CC(N)=O)C(=O)N[C@@H](Cc1c[nH]c2ccccc12)C(=O)N[C@@H](CC(C)C)C(=O)N[C@@H](CC(C)C)C(=O)N[C@@H](C)C(=O)N[C@@H](CCC(N)=O)C(=O)N[C@@H](CCCNC(=N)N)C(N)=O)C(C)C)[C@@H](C)CC [AT378] (H-EGTFISDYSIAMDRIK([AEEA-AEEA-AEEA-γGlu-C18 diacid])QQDFVNWLLAQR-NH2; N-terminus assumed)	0%	92%	90%	–	No Agonism	16 nM
CC[C@H](C)[C@H](NC(=O)[C@H](CO)NC(=O)[C@H](Cc1ccc(O)cc1)NC(=O)[C@H](CC(=O)O)NC(=O)[C@H](CO)NC(=O)[C@@H](NC(=O)[C@H](Cc1ccccc1)NC(=O)[C@@H](NC(=O)CNC(=O)[C@@H]1CCC(=O)N1)[C@@H](C)O)[C@@H](C)CC)C(=O)N[C@@H](C)C(=O)N[C@@H](CCSC)C(=O)N[C@@H](CC(=O)O)C(=O)N[C@@H](CCCNC(=N)N)C(=O)N[C@H](C(=O)N[C@@H](CCCCNC(=O)CCCCCCCCCCCCCCC(=O)O)C(=O)N[C@@H](CCC(N)=O)C(=O)N[C@@H](CCC(N)=O)C(=O)N[C@@H](CC(=O)O)C(=O)N[C@@H](Cc1ccccc1)C(=O)N[C@H](C(=O)N[C@@H](CC(N)=O)C(=O)N[C@@H](Cc1c[nH]c2ccccc12)C(=O)N[C@@H](CC(C)C)C(=O)N[C@@H](CC(C)C)C(=O)N[C@@H](C)C(=O)N[C@@H](CCC(N)=O)C(=O)N[C@@H](CCCNC(=N)N)C(N)=O)C(C)C)[C@@H](C)CC [AT390] ([pGlu]GTFISDYSIAMDRIK(C16 diacid)QQDFVNWLLAQR-NH2)	4%	100%	81%	15.9 nM	No Agonism	1 nM
